# Results reported in article PMC10244169, “Psychedelics promote plasticity by directly binding to BDNF receptor TrkB” (Nature Neuroscience, 2023).
# Assays:
# [1] = molecular target: T1, TrkB (Rattus norvegicus, UniProt Q63604); experiment: biochemical; format: binding
# T1 construct: expressed in transfected cells; host or cells: HEK293T
# [2] = tested on: spine density of neuronal cultures; experiment: Spinogenesis in mature neuronal cultures (WT and Y433F^+/−); format: cell-based, mouse; set-up: 6d: Mean (spinogenesis, spine density) / 6e: Mean (spinogenesis, spine density): unit not given here; conditions: for 6e: Mean (spinogenesis, spine density): Vehicle:Vehicle mean 7.05
# Procedure: Spinogenesis experiments were performed similarly to previous studies[12],[13] with modifications. […] In a separate set of experiments to study the effects of extracellular BDNF and 5-HT2A activation, cultures were also pretreated for 10 min with TrkB.FC (200 ng ml^−1) or M100907 (100 nM), respectively. TrkB.FC and M100907 remained in the medium for the rest of the experiment. Twenty-four hours later, coverslips were fixed with 4% PFA, washed with PBS, incubated with blocking buffer (0.1% Triton X-100, 0.05% Tween-20, 10% normal donkey serum, 1% BSA and 0.1% gelatin in PBS) for 1 h at room temperature and then overnight with rabbit anti-MAP2 (Invitrogen, PA5-17646; 1:100) primary antibody at 4 °C. After washing with PBS, coverslips were incubated with CF568-conjugated donkey anti-rabbit (Biotium, 20098; 1:500) for 1 h at room temperature. Another round of PBS washes was followed by incubation with Alexa Fluor 647-conjugated phalloidin (Invitrogen, A22287; 1:40) overnight at 4 °C. Next, coverslips were briefly washed in phosphate buffer (PB) and mounted on slides with ProLong Glass Antifade Mountant (Invitrogen, P36982). We used a Zeiss LSM 880 confocal microscope with an AiryScan GaAsP detector equipped with a PlanApochromat 63×/1.4 NA objective. We used the BP 495–550 + LP 570 AiryScan filter and Zen Black in super-resolution mode for image acquisition. Pinhole size was adapted accordingly, and frame size was set to optimal. Sensors were set to continuous adjustment across the imaging sessions to ensure optimal sensor alignment and signal detection. Raw data were processed into AiryScan images with the autofilter mode on using Zen Blue. Finally, image analysis was performed in ImageJ by experimenters blinded for treatment and genotype. Spines were quantified in 15-µm-long dendrite sections.
# [3] = tested on: dendritic arbor complexity of neuronal cultures; experiment: Dendritogenesis (Sholl analysis) in neuronal cultures (WT and Y433F^+/−); format: cell-based, mouse
# Procedure: In a separate set of experiments to study the effects of extracellular BDNF and 5-HT2A activation, cultures were also pretreated for 10 min with TrkB.FC (200 ng ml^−1) or M100907 (100 nM), respectively. Similar to treatment with the psychedelics, TrkB.FC and M100907 pretreatments were administered in cumulative doses and remained in the medium for the rest of the experiment. At DIV7, neurons were pre-incubated for 1 h with […] MgCl2 to prevent excitotoxicity, then neurons were transfected for the heterologous expression of mCherry. To minimize any possible interference of the transfection protocol upon the drug effect, transfection was done in the morning while treatment with psychedelics was always added in the evening. Twenty-four hours after transfection, neurons were fixed with 4% PFA for 20 min at room temperature, washed in PBS-T, blocked for 30 min with 3% BSA in PBS-T and incubated with chicken anti-MAP2 (Abcam, ab5392; 1:5,000, 1 h, room temperature). Then, coverslips were washed in PBS-T and incubated with Alexa Fluor 647-conjugated antibody goat anti-chicken (Invitrogen, A-21449; 1:1,000, 1 h, room temperature). Next, coverslips were washed in PBS-T and MilliQ water, and mounted in Dako fluorescence mounting medium (Agilent, S302380-2). Ten optical sections with a Z-step of 1.3 μm were acquired using a Zeiss LSM 710 confocal microscope with a LCI Plan/Neofluar 25×/0.8 lmm Korr DIC M27 objective. In the mCherry channel, the center of the soma was manually assigned and the number of dendritic intersections at fixed distances (every 5 μm) from the soma was automatically counted using the Sholl analysis plugin of ImageJ.
# [4] = Y433F+/-:vehicle minus Y433F+/-:treatment
# T1 sequence (Q63604 32-821): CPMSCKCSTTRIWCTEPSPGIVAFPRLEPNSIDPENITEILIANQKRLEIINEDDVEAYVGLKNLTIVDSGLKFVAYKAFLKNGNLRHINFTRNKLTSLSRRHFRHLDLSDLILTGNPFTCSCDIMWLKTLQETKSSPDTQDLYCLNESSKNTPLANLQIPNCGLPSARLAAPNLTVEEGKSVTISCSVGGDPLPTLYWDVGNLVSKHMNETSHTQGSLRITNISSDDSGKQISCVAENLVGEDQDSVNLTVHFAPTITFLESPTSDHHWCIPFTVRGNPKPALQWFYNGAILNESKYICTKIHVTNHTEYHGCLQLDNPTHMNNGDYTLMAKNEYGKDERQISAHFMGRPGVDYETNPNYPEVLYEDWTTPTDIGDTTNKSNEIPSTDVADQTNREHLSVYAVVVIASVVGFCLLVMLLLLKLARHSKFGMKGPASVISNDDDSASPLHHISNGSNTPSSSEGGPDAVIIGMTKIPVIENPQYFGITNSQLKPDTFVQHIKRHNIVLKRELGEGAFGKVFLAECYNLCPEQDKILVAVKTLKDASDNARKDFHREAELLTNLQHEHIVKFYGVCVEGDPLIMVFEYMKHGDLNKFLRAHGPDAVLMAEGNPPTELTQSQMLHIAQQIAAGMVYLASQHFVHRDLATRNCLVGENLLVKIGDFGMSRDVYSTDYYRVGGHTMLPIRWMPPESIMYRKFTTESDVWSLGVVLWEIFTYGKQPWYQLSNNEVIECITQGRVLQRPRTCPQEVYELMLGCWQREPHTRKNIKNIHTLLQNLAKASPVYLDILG
smiles,measurement,setting,value
"CCN(CC)C(=O)C1C=C2c3cccc4[nH]cc(c34)CC2N(C)C1 (stereo not shown) [LSD, lysergic acid diethylamide]",Ki,[1],3.38 ± 1.39 nM
same,"Bmax (best-fit, 1b)",[1]; competition with ^3H-LSD,104.9
same,"h (best-fit, 1b)",[1]; competition with ^3H-LSD,-0.5005
same,"6e: Mean Diff. (Vehicle:Vehicle vs. treatment), Bonferroni's multiple comparisons test",[2]; LSD together with M100907,-7.65
same,"6e: Mean (spinogenesis, spine density)",[2]; LSD together with M100907,14.7
same,"6e: Mean Diff. (Vehicle:Vehicle vs. treatment), Bonferroni's multiple comparisons test",[2]; LSD together with TrkB.FC,0.25
same,"6e: Mean (spinogenesis, spine density)",[2]; LSD together with TrkB.FC,6.8
same,"6d: Mean (spinogenesis, spine density)","[2]; WT neurons, vehicle mean 5.7",13
same,"6d: Mean Diff. (vehicle vs. treatment), Bonferroni's multiple comparisons test",[2]; WT:vehicle minus WT:treatment,-7.3
same,"6d: Mean (spinogenesis, spine density)","[2]; Y433F+/- neurons, vehicle mean 6.55",7.5
same,"6d: Mean Diff. (vehicle vs. treatment), Bonferroni's multiple comparisons test",[2]; [4],-0.95
same,spine density,"[2]; cultures from WT mice, 24 h, 100 nM",increase spine density
same,"6e: Mean Diff. (Vehicle:Vehicle vs. treatment), Bonferroni's multiple comparisons test",[2]; substance alone (with vehicle),-7.6
same,"6e: Mean (spinogenesis, spine density)",[2]; substance alone (with vehicle),14.65
same,"6g: Mean (dendritogenesis, Sholl analysis)","[3]; WT neurons, vehicle mean 32.96",75.11
same,"6g: Mean Diff. (vehicle vs. treatment), Bonferroni's multiple comparisons test",[3]; WT:vehicle minus WT:treatment,-42.15
same,"6g: Mean (dendritogenesis, Sholl analysis)","[3]; Y433F+/- neurons, vehicle mean 44.44",47.24
same,"6g: Mean Diff. (vehicle vs. treatment), Bonferroni's multiple comparisons test",[3]; [4],-2.791
same,dendritic arbor complexity,[3]; cultures from WT mice,enhance dendritic arbor complexity
same,dendritic arbor complexity,[3]; cultures from Y433F^+/− mice,not Y433F^+/− mice
same,"dendritic arbor complexity, Mean Diff. (Vehicle:vehicle vs. group)","[3]; fig 6i, Bonferroni's multiple comparisons test",-41.23
same,"dendritic arbor complexity, group mean (Mean 2)","[3]; fig 6i, treatment:pretreatment groups, Vehicle:vehicle mean 69.72",110.9
same,"Sholl analysis, Mean at distance from soma","[3]; fig 6j, distance from soma 10 µm",8.895
same,"Sholl analysis, Mean at distance from soma","[3]; fig 6j, distance from soma 15 µm",10.2632
same,"Sholl analysis, Mean at distance from soma","[3]; fig 6j, distance from soma 20 µm",10.421
same,"Sholl analysis, Mean at distance from soma","[3]; fig 6j, distance from soma 25 µm",9.211
same,"Sholl analysis, Mean at distance from soma","[3]; fig 6j, distance from soma 30 µm",8.842
same,"Sholl analysis, Mean at distance from soma","[3]; fig 6j, distance from soma 35 µm",8.316
same,"Sholl analysis, Mean at distance from soma","[3]; fig 6j, distance from soma 40 µm",6.789
same,"Sholl analysis, Mean at distance from soma","[3]; fig 6j, distance from soma 45 µm",6.368
same,"Sholl analysis, Mean at distance from soma","[3]; fig 6j, distance from soma 50 µm",6.368
same,"Sholl analysis, Mean at distance from soma","[3]; fig 6j, distance from soma 55 µm",4.737
same,"Sholl analysis, Mean at distance from soma","[3]; fig 6j, distance from soma 60 µm",4.526
same,"Sholl analysis, Mean at distance from soma","[3]; fig 6j, distance from soma 65 µm",3.895
same,"Sholl analysis, Mean at distance from soma","[3]; fig 6j, distance from soma 70 µm",3.526
same,"Sholl analysis, Mean at distance from soma","[3]; fig 6j, distance from soma 75 µm",3.158
same,"Sholl analysis, Mean at distance from soma","[3]; fig 6j, distance from soma 80 µm",3.158
same,"Sholl analysis, Mean at distance from soma","[3]; fig 6j, distance from soma 85 µm",3.316
same,"Sholl analysis, Mean at distance from soma","[3]; fig 6j, distance from soma 90 µm",3.105
same,"Sholl analysis, Mean at distance from soma","[3]; fig 6j, distance from soma 95 µm",3.211
same,"Sholl analysis, Mean at distance from soma","[3]; fig 6j, distance from soma 100 µm",2.842
same,"Sholl analysis, Mean at distance from soma","[3]; fig 6h, distance from soma 25 µm",4.059
same,"Sholl analysis, Mean at distance from soma","[3]; fig 6h, distance from soma 30 µm",3.529
same,"Sholl analysis, Mean at distance from soma","[3]; fig 6h, distance from soma 35 µm",3
same,"Sholl analysis, Mean at distance from soma","[3]; fig 6h, distance from soma 40 µm",3.059
same,"Sholl analysis, Mean at distance from soma","[3]; fig 6h, distance from soma 45 µm",2.412
same,"Sholl analysis, Mean at distance from soma","[3]; fig 6h, distance from soma 50 µm",2.471
same,"Sholl analysis, Mean at distance from soma","[3]; fig 6h, distance from soma 55 µm",2.294
same,"Sholl analysis, Mean at distance from soma","[3]; fig 6h, distance from soma 60 µm",1.882
same,"Sholl analysis, Mean at distance from soma","[3]; fig 6h, distance from soma 65 µm",1.765
same,"Sholl analysis, Mean at distance from soma","[3]; fig 6h, distance from soma 70 µm",1.294
same,"Sholl analysis, Mean at distance from soma","[3]; fig 6h, distance from soma 75 µm",1.353
same,"Sholl analysis, Mean at distance from soma","[3]; fig 6h, distance from soma 80 µm",1.353
same,"Sholl analysis, Mean at distance from soma","[3]; fig 6h, distance from soma 85 µm",1
same,"Sholl analysis, Mean at distance from soma","[3]; fig 6h, distance from soma 90 µm",1.059
same,"Sholl analysis, Mean at distance from soma","[3]; fig 6h, distance from soma 95 µm",1
same,"Sholl analysis, Mean at distance from soma","[3]; fig 6h, distance from soma 100 µm",0.7059
same,6h: Mean (Sholl analysis),"[3]; first 6h table (N as WT), distance from soma 10 µm",6.789
same,6h: Mean (Sholl analysis),"[3]; first 6h table (N as WT), distance from soma 15 µm",8.684
same,6h: Mean (Sholl analysis),"[3]; first 6h table (N as WT), distance from soma 20 µm",8.526
same,6h: Mean (Sholl analysis),"[3]; first 6h table (N as WT), distance from soma 25 µm",6.474
same,6h: Mean (Sholl analysis),"[3]; first 6h table (N as WT), distance from soma 30 µm",6
same,6h: Mean (Sholl analysis),"[3]; first 6h table (N as WT), distance from soma 35 µm",5.211
same,6h: Mean (Sholl analysis),"[3]; first 6h table (N as WT), distance from soma 40 µm",3.632
same,6h: Mean (Sholl analysis),"[3]; first 6h table (N as WT), distance from soma 45 µm",3.474
same,6h: Mean (Sholl analysis),"[3]; first 6h table (N as WT), distance from soma 50 µm",3
same,6h: Mean (Sholl analysis),"[3]; first 6h table (N as WT), distance from soma 55 µm",2.684
same,6h: Mean (Sholl analysis),"[3]; first 6h table (N as WT), distance from soma 60 µm",3.105
same,6h: Mean (Sholl analysis),"[3]; first 6h table (N as WT), distance from soma 65 µm",2.579
same,6h: Mean (Sholl analysis),"[3]; first 6h table (N as WT), distance from soma 70 µm",2.421
same,6h: Mean (Sholl analysis),"[3]; first 6h table (N as WT), distance from soma 75 µm",2.263
same,6h: Mean (Sholl analysis),"[3]; first 6h table (N as WT), distance from soma 80 µm",2.421
same,6h: Mean (Sholl analysis),"[3]; first 6h table (N as WT), distance from soma 85 µm",2
same,6h: Mean (Sholl analysis),"[3]; first 6h table (N as WT), distance from soma 90 µm",2.421
same,6h: Mean (Sholl analysis),"[3]; first 6h table (N as WT), distance from soma 95 µm",1.632
same,6h: Mean (Sholl analysis),"[3]; first 6h table (N as WT), distance from soma 100 µm",1.789
same,6h: Mean (Sholl analysis),"[3]; second 6h table (N as Y433F), distance from soma 10 µm",5.294
same,6h: Mean (Sholl analysis),"[3]; second 6h table (N as Y433F), distance from soma 15 µm",4.941
same,6h: Mean (Sholl analysis),"[3]; second 6h table (N as Y433F), distance from soma 20 µm",4.765
